# Read-outs that look alike come from different tables or passages of the source.
# Tests used:
# [1] = target: T1, M. tuberculosis InhA (Mycobacterium tuberculosis, UniProt P9WGR1); assay: InhA in vitro inhibition assay; type: biochemical
# [2] = tested on: M. tuberculosis H37Rv; assay: microbe, parasite or virus in culture; type: cell-based, Mycobacterium tuberculosis; conditions: Mycobacterium tuberculosis, H37RV; whole-cell M. tuberculosis
# [3] = tested on: intracellular M. tuberculosis in THP-1 cells; assay: microbe, parasite or virus in culture; type: cell-based; conditions: Mycobacterium tuberculosis
# [4] = in vitro; type: cell-based; conditions: human; read-out: HepG2 cytotoxicity IC50
# Procedure: HepG2 human liver cells (ATCC HB 8065) were propagated in DMEM containing either 25 mM glucose or 10 mM galactose plus 10% vol/vol FBS, 1 mM sodium pyruvate, 2 mM Corning glutagro, 100 U/ml penicillin, and 100 μg/ml streptomycin. The cells were seeded in 384-well plates at 1,800 cells per well and incubated in a humidified incubator at 37°C, 5% CO2. Compounds were solubilized in DMSO and assayed using a 10-point threefold serial dilution. Compounds were added 24 h post cell seeding to a final assay concentration of 1% DMSO and highest compound concentration of 100 μM. The cells were incubated for 72 h and viability measured using CellTiter-Glo reagent (Promega) and reading RLU. Growth inhibition curves were fitted using the Levenberg–Marquardt algorithm. The IC50 was defined as the compound concentration that produced 50% of the inhibitory response against HepG2 cells.
# [5] = target: T1, M. tuberculosis InhA; assay: biochemical; type: binding
# [6] = tested on: M. tuberculosis H37Rv; assay: Kill kinetics under replicating conditions; type: cell-based, Mycobacterium tuberculosis
# [7] = tested on: M. tuberculosis Erdman TMCC 107; assay: microbe, parasite or virus in culture; type: cell-based; conditions: Mycobacterium tuberculosis, read-out: potency (MIC) against M. tuberculosis Erdman TMCC 107
# [8] = tested on: M. tuberculosis Erdman; type: in vivo, Mycobacterium tuberculosis; conditions: for reduction in M. tuberculosis lung burdens / reduction in M. tuberculosis spleen burdens: 9-d treatment; for Mean ± SEM Log10 CFU: dose escalation study (Table S4), day 22
# [9] = tested on: M. tuberculosis Erdman; type: in vivo, Mycobacterium tuberculosis; conditions: 100 mg/kg
# [10] = for Ratio Plasma AUC0-last / Dose / Ratio Plasma Cmax/Dose: C57Bl/6 mice
# [11] = human serum
# [12] = mouse plasma
# [13] = in vivo; conditions: female; for AUC(0-t): AUClast
# [14] = in vitro; conditions: human
# [15] = BALB/c, mouse, po, 10 mg/kg, BALB/c (infected) mice, oral 10 mg/kg QD-3 wk, plasma
# [16] = BALB/c, mouse, po, 50 mg/kg, BALB/c (infected) mice, oral 50 mg/kg QD-3 wk, plasma
# [17] = C57BL/6, mouse, po, 10 mg/kg, C57Bl/6 mice, oral 10 mg/kg QD-4 days, plasma
# [18] = C57BL/6, mouse, po, 10 mg/kg, C57Bl/6 mice, oral 10 mg/kg QD-4 days, lung
# [19] = C57BL/6, mouse, po, 25 mg/kg, C57Bl/6 mice, oral 25 mg/kg QD-4 days, plasma
# [20] = C57BL/6, mouse, po, 25 mg/kg, C57Bl/6 mice, oral 25 mg/kg QD-4 days, lung
# [21] = C57BL/6, mouse, po, 50 mg/kg, C57Bl/6 mice, oral 50 mg/kg QD-4 days, plasma
# [22] = C57BL/6, mouse, po, 50 mg/kg, C57Bl/6 mice, oral 50 mg/kg QD-4 days, lung
# [23] = CD-1, mouse, iv, 5 mg/kg, CD-1 mice, IV 5 mg/kg, single dose, plasma
# [24] = CD-1, mouse, po, 10 mg/kg, CD-1 mice, oral 10 mg/kg, single dose, lung
# [25] = CD-1, mouse, po, 10 mg/kg, CD-1 mice, oral 10 mg/kg, single dose, plasma
# T1 sequence (P9WGR1 whole entry, looked up): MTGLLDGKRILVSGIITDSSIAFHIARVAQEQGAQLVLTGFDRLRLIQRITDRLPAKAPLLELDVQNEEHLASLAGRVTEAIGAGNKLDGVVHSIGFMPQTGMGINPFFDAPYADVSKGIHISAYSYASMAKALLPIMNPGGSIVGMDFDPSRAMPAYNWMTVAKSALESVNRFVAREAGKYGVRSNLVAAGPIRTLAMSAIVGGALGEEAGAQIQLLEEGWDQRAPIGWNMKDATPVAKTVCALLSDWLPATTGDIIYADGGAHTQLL
structure (smiles),measurement,setting,value
CCS(=O)(=O)N1N=Cc2ccc(Oc3ccc(C(F)(F)F)cc3/C=N/O)cc2B1O [AN12855],IC50,[1],30 nM
same,IC90,[2],90 ± 50 nM
same,IC50,[3],21 ± 3 nM
same,IC90,[3],40 ± 10 nM
same,IC50,[4],> 100 µM
same,Kd,[5]; cofactor: None,77 nM
same,N (stoichiometry of binding),[5]; cofactor: None,0.58 ± 0.014
same,∆H,[5]; cofactor: None,"−17,740 ± 607 cal/mol"
same,∆S,[5]; cofactor: None,−27 cal/mol/deg
same,binding to InhA,[5]; in the presence of NADH,unable to bind
same,bactericidal activity,[6],concentration-dependent bactericidal activity
same,time to reach the limit of detection,"[6]; replicating conditions, 10× the IC90",7 days
same,MIC,[7]; with 4% human serum albumin,2.3 µM
same,MIC,[7]; without human serum albumin,0.28 µM
same,reduction in M. tuberculosis lung burdens,[8]; 10 mg/kg,2.3 log10
same,reduction in M. tuberculosis spleen burdens,[8]; 10 mg/kg,2.1 log10
same,reduction in M. tuberculosis lung burdens,[8]; 25 mg/kg,2.7 log10
same,reduction in M. tuberculosis spleen burdens,[8]; 25 mg/kg,3.2 log10
same,reduction in M. tuberculosis lung burdens,[8]; 50 mg/kg,3.7 log10
same,reduction in M. tuberculosis spleen burdens,[8]; 50 mg/kg,3.6 log10
same,Mean ± SEM Log10 CFU,"[8]; lung, 50 mg/kg",5.8 ± 0.05 Log10 CFU
same,Mean ± SEM Log10 CFU,"[8]; lung, 100 mg/kg",5.0 ± 0.13 Log10 CFU
same,Mean ± SEM Log10 CFU,"[8]; lung, 200 mg/kg",5.6 ± 0.06 Log10 CFU
same,Mean ± SEM Log10 CFU,"[8]; organ Lung, 50 mg/kg",2.5 ± 0.24 Log10 CFU
same,Mean ± SEM Log10 CFU,"[8]; organ Lung, 100 mg/kg",2.5 ± 0.05 Log10 CFU
same,Mean ± SEM Log10 CFU,"[8]; organ Lung, 200 mg/kg",3.0 ± 0.10 Log10 CFU
same,reduction in lung burdens,[9]; 2 weeks of treatment,0.47 log10 CFU
same,reduction in lung burdens,[9]; 4 weeks of treatment,0.81 log10 CFU
same,reduction in lung burdens,[9]; 8 weeks of treatment,1.73 log10 CFU
same,reduction in spleens,[9]; 8 weeks of treatment,more than three log10 reductions
same,Ratio Plasma AUC0-last / Dose,[10]; oral 10 mg/kg QD-4 days,1.8
same,Ratio Plasma Cmax/Dose,[10]; oral 10 mg/kg QD-4 days,0.58
same,Ratio Plasma AUC0-last / Dose,[10]; oral 25 mg/kg QD-4 days,1.9
same,Ratio Plasma Cmax/Dose,[10]; oral 25 mg/kg QD-4 days,0.5
same,Ratio Plasma AUC0-last / Dose,[10]; oral 50 mg/kg QD-4 days,1.6
same,Ratio Plasma Cmax/Dose,[10]; oral 50 mg/kg QD-4 days,0.3
same,total lung exposure lower than plasma AUC,"[10]; CD-1 mice, oral 10 mg/kg",33%
same,protein bound,[11],88%
same,protein bound,[12],98.5%
same,AUC(0-inf),"[13]; BALB/c, mouse, po, 10 mg/kg",29000 ng·h/mL
same,half-life,"[13]; BALB/c, mouse, po, 10 mg/kg",182 min
same,AUC(0-t),[13]; [15],28900 ng·h/mL
same,Cmax,[13]; [15],8360 ng/mL
same,Tmax,[13]; [15],30 min
same,AUC(0-inf),"[13]; BALB/c, mouse, po, 50 mg/kg",192000 ng·h/mL
same,half-life,"[13]; BALB/c, mouse, po, 50 mg/kg",144 min
same,AUC(0-t),[13]; [16],192000 ng·h/mL
same,Cmax,[13]; [16],61600 ng/mL
same,Tmax,[13]; [16],30 min
same,AUC(0-inf),"[13]; C57BL/6, mouse, po, 10 mg/kg",19700 ng·h/mL
same,half-life,"[13]; C57BL/6, mouse, po, 10 mg/kg",150 min
same,AUC(0-t),[13]; [17],17600 ng·h/mL
same,Cmax,[13]; [18],584 ng/mL
same,Cmax,[13]; [17],5790 ng/mL
same,Kp,"[13]; C57BL/6, mouse, po, 10 mg/kg, Ratio (Lung / Plasma) @ 5 hr, C57Bl/6 mice, oral 10 mg/kg QD-4 days",0.39
same,Kp,"[13]; C57BL/6, mouse, po, 10 mg/kg, Ratio (Lung / Plasma) @ 8 hr, C57Bl/6 mice, oral 10 mg/kg QD-4 days",0.51
same,Tmax,[13]; [18],300 min
same,Tmax,[13]; [17],30 min
same,AUC(0-inf),"[13]; C57BL/6, mouse, po, 25 mg/kg",59000 ng·h/mL
same,half-life,"[13]; C57BL/6, mouse, po, 25 mg/kg",211 min
same,AUC(0-t),[13]; [19],46800 ng·h/mL
same,Cmax,[13]; [20],1900 ng/mL
same,Cmax,[13]; [19],12600 ng/mL
same,Kp,"[13]; C57BL/6, mouse, po, 25 mg/kg, Ratio (Lung / Plasma) @ 5 hr, C57Bl/6 mice, oral 25 mg/kg QD-4 days",0.48
same,Kp,"[13]; C57BL/6, mouse, po, 25 mg/kg, Ratio (Lung / Plasma) @ 8 hr, C57Bl/6 mice, oral 25 mg/kg QD-4 days",0.49
same,Tmax,[13]; [20],300 min
same,Tmax,[13]; [19],30 min
same,AUC(0-inf),"[13]; C57BL/6, mouse, po, 50 mg/kg",109000 ng·h/mL
same,half-life,"[13]; C57BL/6, mouse, po, 50 mg/kg",226 min
same,AUC(0-t),[13]; [21],82400 ng·h/mL
same,Cmax,[13]; [22],3500 ng/mL
same,Cmax,[13]; [21],14900 ng/mL
same,Kp,"[13]; C57BL/6, mouse, po, 50 mg/kg, Ratio (Lung / Plasma) @ 5 hr, C57Bl/6 mice, oral 50 mg/kg QD-4 days",0.36
same,Kp,"[13]; C57BL/6, mouse, po, 50 mg/kg, Ratio (Lung / Plasma) @ 8 hr, C57Bl/6 mice, oral 50 mg/kg QD-4 days",0.47
same,Tmax,[13]; [22],300 min
same,Tmax,[13]; [21],30 min
same,half-life,"[13]; CD-1, mouse",210 min
same,AUC(0-inf),"[13]; CD-1, mouse, iv, 5 mg/kg",14400 ng·h/mL
same,MRT inf,"[13]; CD-1, mouse, iv, 5 mg/kg",3.64 h
same,Vd,"[13]; CD-1, mouse, iv, 5 mg/kg",1.27 L/kg
same,clearance,"[13]; CD-1, mouse, iv, 5 mg/kg",5.8 mL/min/kg
same,half-life,"[13]; CD-1, mouse, iv, 5 mg/kg",208 min
same,AUC(0-t),[13]; [23],14300 ng·h/mL
same,Cmax,[13]; [23],6320 ng/mL
same,AUC(0-inf),"[13]; CD-1, mouse, po, 10 mg/kg",15500 ng·h/mL
same,bioavailability,"[13]; CD-1, mouse, po, 10 mg/kg",53%
same,half-life,"[13]; CD-1, mouse, po, 10 mg/kg",196 min
same,AUC(0-t),[13]; [24],10400 ng·h/mL
same,AUC(0-t),[13]; [25],15400 ng·h/mL
same,Cmax,[13]; [24],1020 ng/mL
same,Cmax,[13]; [25],1740 ng/mL
same,Tmax,[13]; [24],240 min
same,Tmax,[13]; [25],30 min
same,IC50,[14],> 50 µM

# — publication PMC6238539, “Discovery of a cofactor-independent inhibitor of Mycobacterium tuberculosis InhA” (Life Science Alliance, 2018)
